Laboratory results taken from patent publication US20140011811A1, “MYOSIN BINDING PROTEIN-C FOR USE IN METHODS RELATING TO DIASTOLIC HEART FAILURE” (The United States Government as represented by the …, priority 2011, published 2014).

Columns and labels:
DOCA-salt mice = experiment: Echocardiography (mitral pulse wave Doppler flow and tissue Doppler imaging) in DOCA-salt mouse model of diastolic dysfunction; type: in vivo; details: DOCA-salt+BH4 mice, BH4 supplemental diet 5 mg BH4/day, postoperative day 11 to 18, echocardiography day 18
Experimental: Previously, we have shown that the DOCA-salt mouse model leads to mild hypertension, NOS uncoupling, myocardial oxidative stress, and diastolic dysfunction. A gradual and mild elevation in blood pressure was induced by unilateral nephrectomy, subcutaneous implantation of a controlled release deoxycorticosterone acetate (DOCA) pellet (0.7 mg/d; Innovative Research of America, Sarasota, Fla.), and substituting drinking water with 1.05% saline. Control animals underwent a sham operation, had placebo pellet implantation, and received water without salt.
Mice were divided into two groups which received a control diet (sham N=7; DOCA-salt N=10) and two groups which received a BH4 supplemental diet of 5 mg BH4/day (Research Diets Inc, New Brunswick, N.J.; sham+BH4 N=8; DOCA-salt+BH4 N=8). The supplemental diet began on day 11 after surgery, and continued until day 18, when the mice were analyzed and sacrificed.
Ten days after surgery, we employed echocardiography to characterize the diastolic dysfunction. […] The images for each mouse were recorded for at least 5 s (30-40 cardiac cycles) from which three to five representative cycles with the highest quality imaging were selected. Percent fractional shortenin (% FS) were calculated as 100×(LVEDd)-(LVESd)/(LVEDd) and percent LV ejection fraction (%EF) was calculated as 100×[(7/2.4+LVEDd)×LEDd^3]−[(7/2.4+LVESd)×LVESd^3]/[(7/2.4+LVEDd)×LEDd^3]. […]

[1] = test system: myosin binding protein C (MyBP-C); experiment: Western immunoblotting of S-glutathionylation of MyBP-C in cardiac myofilaments from treated DOCA-salt and sham mice; type: in vivo, mouse; details: chronic ranolazine diet (~1 g/day tablet with 5 mg ranolazine and 0.3 mg P450 inhibitor), postoperative day 11 to 18
Experimental: Chronic Administration of Ranolazine: A special diet contained 5 mg ranolazine, 0.3 mg P450 inhibitor, and 0.25 mg red food color was pressed into a 1-g nutritionally complete grain-based tablet (Harlan, Madison, Wis.). The control diet contained 0.3mg P450 inhibitor and 0.25 mg yellow food color pressed into the same type of 1-g tablets. DOCA-salt and sham mice consumed daily ˜1g of the special diet from postoperative day 11 to 18. Western blot analysis was used to detect for glutathionylated proteins. […] Using the protein concentration determined from an RC-DC (Bio-Rad) assay, 40 μg of total protein was applied to 1D 12% resolving SDS-PAGE gel and transferred onto a 0.2 μM Polyvinylidene fluoride (PVDF) membrane. […] Anti-glutathione mouse monoclonal primary antibody (Virogen, Watertown, Mass.) was used at 1:1000 dilution along with anti-mouse HRP-conjugated secondary antibody (Sigma) at 1:100,000 dilution to detect for S-glutathionylation.10 Optical density of the bands was measured with ImageQuant TL (GE Healthcare) and exported to Excel for further analysis. […] Using the protein concentration determined from an RC-DC (Bio-Rad) assay, 40 µg of total protein was applied to a 12% SDS-PAGE gel and transferred onto a 0.2 pm PVDF membrane. […] Optical density of the bands was measured with ImageQuant TL (GE Healthcare) and exported to Excel for further analysis. […]

MyBP-C = experiment: Pro-Q Diamond gel stain of phosphorylation of MyBP-C in myofibrils from treated DOCA-salt and sham mice; type: in vivo, mouse; details: DOCA-salt or sham mice treated as in Examples 1 and 2
Experimental: DOCA-salt or sham mice were administered ranolazine or BH4 as essentially described in Examples 1 and 2, respectively. Pro-Q Diamond (Invitrogen) gel stain was used to detect changes in phosphorylation states of MyBP-C. Myofibrils were prepared from DOCA-salt and sham models of the mice hearts, and pellets were solubilized in a non-reducing 2× laemmli buffer (4% SDS, 20% glycerol, 0.004% bromophenol blue, and 0.125 M Tris HCl pH 6.8). 25 mM N-ethylmaleimide (NEM) was added to the standard rigor buffer with Triton X-100, the standard rigor wash buffer, and the 2× Laemmli buffer. An RC-DC assay (BioRad) was used to determine protein concentrations. Samples were diluted at 1:1 ratio in reducing sample buffer (8 M urea, 2 M thiourea, 0.05 M tris pH 6.8, 75 mM DTT, 3% SDS, and 0.05% bromophenol blue and approximately 10 μg of protein was loaded on to a 12% resolving 1D SDS-PAGE gel. The gels were stained and destained with Pro-Q Diamond according to the manufacturer's recommendations prior to the imaging with a Typhoon 9410 scanner (GE Healthcare). Coomassie R-250 staining was used to normalize protein load to both actin and the whole lane. Optical density of the proteins was determined using ImageQuant TL (GE Healthcare) software and results were exported to Excel for further analysis.

In the case of `C[C@H](O)[C@H](O)[C@H]1CNc2nc(N)[nH]c(=O)c2N1` [BH4, tetrahydrobiopterin], the “ratio of E′A′ (mitral tissue Doppler E′/A′)” value (DOCA-salt mice; vs. DOCA-salt 0.74±0.05, P<0.001) is reported as 1.12±1.10 and the “E/E′ ratio, a measure of left atrial pressure” value (DOCA-salt mice; vs. DOCA-salt 43.7±2.7, P<0.01) is reported as 34.5±2.2.

With `COc1ccccc1OCC(O)CN1CCN(CC(=O)Nc2c(C)cccc2C)CC1` (stereo not shown) [ranolazine] the MyBP-C glutathionylation [1] was “regressed level” and the “phosphorylation levels of MyBP-C” value (MyBP-C) was “did not affect”.
